Laboratory results as given in ChEMBL document CHEMBL2040817, “Fragment-based discovery of hydroxy-indazole-carboxamides as novel small molecule inhibitors of Hsp90” (Bioorg Med Chem Lett, 2012).

Assays:
[1] = molecular target: T1, Heat shock protein HSP 90-beta (Homo sapiens, UniProt P08238); assay: Displacement of [3H]17AAG from human recombinant Hsp90 after 30 mins by beta scintillation counting
A2780 = assay: Antiproliferative activity against human A2780 cells after 72 hrs by alamar blue assay; type: functional, cell-based; conditions: A2780, 72 h
PC-3 = assay: Antiproliferative activity against human PC3 cells after 72 hrs by alamar blue assay; type: functional, cell-based; conditions: PC-3, 72 h
MCF7 = assay: Antiproliferative activity against human MCF7 cells after 72 hrs by alamar blue assay; type: functional, cell-based; conditions: MCF7, 72 h
COLO 205 = assay: Antiproliferative activity against human COLO205 cells after 72 hrs by alamar blue assay; type: functional, cell-based; conditions: COLO 205, 72 h
[2] = molecular target: T1, Heat shock protein HSP 90-beta; assay: Inhibition of Hsp90 in human A2780 cells assessed as Hsp70 upregulation after 24 hrs by immunostaining method; type: cell-based

T1 sequence (P08238 whole entry): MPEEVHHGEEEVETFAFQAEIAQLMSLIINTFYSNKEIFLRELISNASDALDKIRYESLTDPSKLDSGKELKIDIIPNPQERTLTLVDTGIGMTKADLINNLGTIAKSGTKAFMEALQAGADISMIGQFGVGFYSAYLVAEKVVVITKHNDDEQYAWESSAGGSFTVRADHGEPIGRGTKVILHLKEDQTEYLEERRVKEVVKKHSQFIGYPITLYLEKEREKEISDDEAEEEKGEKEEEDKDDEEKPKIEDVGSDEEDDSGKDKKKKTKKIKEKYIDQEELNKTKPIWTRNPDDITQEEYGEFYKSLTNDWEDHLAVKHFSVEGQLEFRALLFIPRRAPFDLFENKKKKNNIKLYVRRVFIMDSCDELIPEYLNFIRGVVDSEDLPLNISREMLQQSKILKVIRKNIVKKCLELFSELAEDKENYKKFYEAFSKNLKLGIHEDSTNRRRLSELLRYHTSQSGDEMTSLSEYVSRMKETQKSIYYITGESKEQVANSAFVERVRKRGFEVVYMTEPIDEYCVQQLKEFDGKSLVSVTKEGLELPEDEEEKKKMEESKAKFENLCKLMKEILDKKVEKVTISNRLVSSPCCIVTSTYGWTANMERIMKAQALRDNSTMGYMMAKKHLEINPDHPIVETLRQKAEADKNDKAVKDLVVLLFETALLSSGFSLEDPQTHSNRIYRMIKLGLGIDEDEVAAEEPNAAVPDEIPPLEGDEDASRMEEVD

| SMILES | IC50 [1] [nM] | IC50 (A2780) [nM] | further results |
| --- | --- | --- | --- |
| Cc1cccc(Cc2n[nH]c3cc(O)c(C(=O)NCc4ccccc4)cc23)c1 | 1500 | > 10000 |  |
| COc1ccc(CN(C)C(=O)c2cc3c(Cc4cccc(C)c4)n[nH]c3cc2O)cc1 | 460 | 540 |  |
| CCCN(C)C(=O)c1cc2c(Cc3ccccc3)n[nH]c2cc1O | 1900 | > 10000 |  |
| COc1cc2[nH]nc(Cc3cccc(C)c3)c2cc1C(=O)N(C)Cc1ccccc1 | > 20000 |  |  |
| CN(Cc1ccccc1)C(=O)c1cc2c(Cc3ccc(Cl)cc3)n[nH]c2cc1O | 5700 |  |  |
| Cc1cccc(Cc2n[nH]c3cc(O)c(C(=O)N(C)Cc4ccc(Cl)c(F)c4)cc23)c1 | 170 | 930 |  |
| Cc1cccc(Cc2n[nH]c3cc(O)c(C(=O)N(C)Cc4ccccc4)cc23)c1 |  | 490 |  |
| CN(Cc1ccccc1)C(=O)c1cc2c(Cc3ccccc3Cl)n[nH]c2cc1O | 2600 |  |  |
| CN(Cc1ccc(CNS(C)(=O)=O)cc1)C(=O)c1cc2c(Cc3cccc(Cl)c3)n[nH]c2cc1O | 60 | 570 | IC50 (PC-3): 4300 nM; IC50 (MCF7): 3500 nM; IC50 (COLO 205): 9500 nM; IC50 [2]: 1000 nM |
| Cc1cccc(Cc2n[nH]c3cc(O)c(C(=O)N(C)Cc4ccc(F)cc4)cc23)c1 | 580 | 590 |  |
| COc1ccccc1CN(C)C(=O)c1cc2c(Cc3ccccc3)n[nH]c2cc1O | 1700 | 5400 |  |
| COCCN(C)C(=O)c1cc2c(Cc3ccccc3)n[nH]c2cc1O | 4000 |  |  |
| CCc1cccc(Cc2n[nH]c3cc(O)c(C(=O)N(C)Cc4ccccc4)cc23)c1 | 1300 |  |  |
| COc1ccc(CN(C)C(=O)c2cc3c(Cc4cccc(Cl)c4)n[nH]c3cc2O)cc1OC | 730 | 2400 |  |
| Cc1cccc(CN(C)C(=O)c2cc3c(Cc4ccccc4)n[nH]c3cc2O)c1 | 3600 |  |  |
| CCc1ccc(CN(C)C(=O)c2cc3c(Cc4ccccc4)n[nH]c3cc2O)cc1 | 390 | 9400 |  |
| COc1ccc(CN(C)C(=O)c2cc3c(Cc4cccc(C)c4)n[nH]c3cc2O)cc1OC | 580 | 3700 |  |
| CN(Cc1ccccc1)C(=O)c1cc2c(Cc3cccc(Cl)c3)n[nH]c2cc1O | 400 | 410 |  |
| CN(Cc1cccc(F)c1)C(=O)c1cc2c(Cc3cccc(Cl)c3)n[nH]c2cc1O | 710 | 440 |  |
| CCN(Cc1ccccc1)C(=O)c1cc2c(Cc3cccc(C)c3)n[nH]c2cc1O | 3000 |  |  |
| Cc1cccc(Cc2n[nH]c3cc(O)c(C(=O)N(C)Cc4cccc(NS(C)(=O)=O)c4)cc23)c1 | 200 | 4000 |  |

| SMILES | IC50 [1] [nM] | IC50 (A2780) [nM] | further results |
| --- | --- | --- | --- |
| Cc1ccccc1CN(C)C(=O)c1cc2c(Cc3ccccc3)n[nH]c2cc1O | 740 | 4400 |  |
| Cc1cccc(Cc2n[nH]c3cc(O)c(C(=O)N(C)Cc4ccc(F)c(F)c4)cc23)c1 | 500 | 530 |  |
| CN(Cc1cccc(C(F)(F)F)c1)C(=O)c1cc2c(Cc3ccccc3)n[nH]c2cc1O | 3400 |  |  |
| CN(Cc1cccc(NS(C)(=O)=O)c1)C(=O)c1cc2c(Cc3cccc(Cl)c3)n[nH]c2cc1O | 410 | 3200 |  |
| COc1cccc(Cc2n[nH]c3cc(O)c(C(=O)N(C)Cc4ccccc4)cc23)c1 | 1400 |  |  |
| Cc1ccc(Cc2n[nH]c3cc(O)c(C(=O)N(C)Cc4ccccc4)cc23)cc1 | 1300 | > 10000 |  |
| Cc1ccccc1Cc1n[nH]c2cc(O)c(C(=O)N(C)Cc3ccccc3)cc12 | 2400 |  |  |
| Cc1ccc(CN(C)C(=O)c2cc3c(Cc4ccccc4)n[nH]c3cc2O)cc1 | 630 | 6900 |  |
| CCc1ccc(Cc2n[nH]c3cc(O)c(C(=O)N(C)Cc4ccccc4)cc23)cc1 | 2500 | > 10000 |  |
| CN(Cc1ccccc1)C(=O)c1cc2c(CCc3ccccc3)n[nH]c2cc1O | 230 | 4600 |  |
| CN(Cc1ccc(Cl)cc1)C(=O)c1cc2c(Cc3ccccc3)n[nH]c2cc1O | 330 | 2600 |  |
| CN(Cc1cccc(Br)c1)C(=O)c1cc2c(Cc3ccccc3)n[nH]c2cc1O | 1300 | 7100 |  |
| Cc1cccc(Cc2n[nH]c3cc(O)c(C(=O)N(C)Cc4ccc(CNS(C)(=O)=O)cc4)cc23)c1 | 150 | 710 | IC50 (PC-3): > 10000 nM; IC50 (MCF7): 4700 nM; IC50 (COLO 205): 3700 nM; IC50 [2]: 1100 nM |
| COc1cc(CN(C)C(=O)c2cc3c(Cc4cccc(C)c4)n[nH]c3cc2O)ccc1Cl | 680 | 1600 |  |
| CN(Cc1ccccc1)C(=O)c1cc2c(Cc3ccccc3)n[nH]c2cc1O | 660 | 980 |  |
| CN(Cc1ccccc1Cl)C(=O)c1cc2c(Cc3ccccc3)n[nH]c2cc1O | 1100 | 1100 |  |
| COc1ccc(CN(C)C(=O)c2cc3c(Cc4cccc(Cl)c4)n[nH]c3cc2O)cc1 | 800 | 390 |  |
| Cc1cccc(Cc2n[nH]c3cc(O)c(C(=O)N(C)Cc4cccc(F)c4)cc23)c1 | 370 | 440 |  |
| CN(Cc1ccccc1Br)C(=O)c1cc2c(Cc3ccccc3)n[nH]c2cc1O | 610 | 1200 |  |
| COc1cccc(CN(C)C(=O)c2cc3c(Cc4ccccc4)n[nH]c3cc2O)c1OC | 470 | 4800 |  |
| Cc1cccc(Cc2n[nH]c3cc(O)c(C(=O)N(C)Cc4ccc(NS(C)(=O)=O)cc4)cc23)c1 | 350 | 1600 |  |

| SMILES | IC50 [1] [nM] | IC50 (A2780) [nM] | further results |
| --- | --- | --- | --- |
| CN(Cc1ccc(Br)cc1)C(=O)c1cc2c(Cc3ccccc3)n[nH]c2cc1O | 1100 | 2800 |  |
| COc1cccc(CN(C)C(=O)c2cc3c(Cc4ccccc4)n[nH]c3cc2O)c1 | 980 | 3800 |  |
| CN(Cc1ccc(F)cc1)C(=O)c1cc2c(Cc3cccc(Cl)c3)n[nH]c2cc1O | 800 | 410 |  |
| Cc1ccc(-c2nc(N)nc3ccc(Cl)cc23)cc1 | 900 |  |  |
| CN(Cc1ccc(F)cc1)C(=O)c1cc2c(Cc3ccccc3)n[nH]c2cc1O | 1100 | 4100 |  |
| Oc1ccc2c(C3CCCC3)n[nH]c2c1 | 87000 |  |  |
| CN(Cc1ccccc1)C(=O)c1cc2c(Cc3cccc(F)c3)n[nH]c2cc1O | 1300 | 1700 |  |
| NC(=O)c1cc2c(Cc3ccccc3)n[nH]c2cc1O | 61000 |  |  |
| COc1cc(CN(C)C(=O)c2cc3c(Cc4ccccc4)n[nH]c3cc2O)ccc1Cl | 2300 | 4100 |  |
| CN(Cc1cccc(Cl)c1)C(=O)c1cc2c(Cc3ccccc3)n[nH]c2cc1O | 1500 | 5300 |  |
| Nc1nc(Cl)cc(Cc2ccc(Cl)cc2)n1 | 21000 |  |  |
| CCOc1ccc(CN(C)C(=O)c2cc3c(Cc4ccccc4)n[nH]c3cc2O)cc1 | 760 | 3200 |  |
| CN(Cc1ccccc1F)C(=O)c1cc2c(Cc3ccccc3)n[nH]c2cc1O | 900 | 1500 |  |
| CN(Cc1cccc(F)c1)C(=O)c1cc2c(Cc3ccccc3)n[nH]c2cc1O | 570 | 5000 |  |
| CCCCN(C)C(=O)c1cc2c(Cc3ccccc3)n[nH]c2cc1O | 1800 | 7600 |  |
| Cc1cccc(Cc2n[nH]c3cc(O)c(C(=O)N(C)Cc4ccccc4Br)cc23)c1 | 780 | 310 |  |
| CN(C(=O)c1cc2c(Cc3ccccc3)n[nH]c2cc1O)c1ccco1 | 610 | 2500 |  |
| CN(Cc1ccccc1Br)C(=O)c1cc2c(Cc3cccc(Cl)c3)n[nH]c2cc1O | 590 | 130 |  |
| CN(Cc1ccc(Cl)c(F)c1)C(=O)c1cc2c(Cc3ccccc3)n[nH]c2cc1O | 980 | > 10000 |  |
